Measurements from PubChem BioAssay (NCI).
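Grown in 96-well plates, cells were treated for 48 hours with each compound at five concentrations. Insufficient inhibition: endpoint recorded as highest concentration tested. GI50: concentration for 50% inhibition of growth. TGI marks complete inhibition of growth.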

Key:
Assay in all cases: growth of human tumour cells (NCI), 48 h
786-0 renal = tested on: 786-0 renal
BT-549 breast = tested on: BT-549 breast
CCRF-CEM leukemia = tested on: CCRF-CEM leukemia
M14 melanoma = tested on: M14 melanoma
MDA-MB-231 breast = tested on: MDA-MB-231 breast
OVCAR-4 ovarian = tested on: OVCAR-4 ovarian
RXF 393 renal = tested on: RXF 393 renal
SF-295 CNS = tested on: SF-295 CNS
SW-620 colon = tested on: SW-620 colon
UACC-62 melanoma = tested on: UACC-62 melanoma

| SMILES | TGI (786-0 renal) [µM] | TGI (BT-549 breast) [µM] | TGI (CCRF-CEM leukemia) [µM] | TGI (M14 melanoma) [µM] | TGI (MDA-MB-231 breast) [µM] | TGI (OVCAR-4 ovarian) [µM] | TGI (RXF 393 renal) [µM] | TGI (SF-295 CNS) [µM] | TGI (SW-620 colon) [µM] | TGI (UACC-62 melanoma) [µM] | GI50 (BT-549 breast) [µM] | GI50 (CCRF-CEM leukemia) [µM] | GI50 (OVCAR-4 ovarian) [µM] | GI50 (SF-295 CNS) [µM] | GI50 (SW-620 colon) [µM] |
| --- | --- | --- | --- | --- | --- | --- | --- | --- | --- | --- | --- | --- | --- | --- | --- |
| COc1cc(C(N)=O)cc(NC(=O)/C=C/c2ccccc2)c1OC | > 100 | > 100 | > 100 | > 100 | > 100 | > 100 | > 100 | > 100 | > 100 | > 100 |  |  |  |  |  |
| Cc1c(CCCl)c(N=[N+]=[N-])n2c(nc3ccccc32)c1C#N | 1.63 | 2.1 | 0.987 | 2.77 | 3.16 | 3.54 | 2.85 | 3.54 | 1.21 | 3.12 |  |  |  |  |  |
| CN(C)CCNC(=O)c1cccc2nc3cccc(F)c3nc12 | 24.8 | 11.4 | 10.4 | 4.58 | 6.77 | 4.83 | 4.11 | 6.79 | 5.82 | > 19.8 |  |  |  |  |  |
| COC(=O)NN=C(c1ccc(Cl)cc1)c1ccc(Cl)cc1 | > 100 | > 100 | > 100 | > 100 | > 100 | > 100 | > 100 |  | > 100 | > 100 |  |  |  |  |  |
| O=C1Nc2ccccc2Nc2nc3cccccc-3c21 | > 100 |  | > 100 | > 100 |  | > 100 | > 100 | > 100 | > 100 | > 100 |  |  |  |  |  |
| CC(C)OP(=O)(OC(C)C)/C(=N/N)NNc1ccc([N+](=O)[O-])cc1 | > 100 |  | > 100 | > 100 |  | > 100 |  |  | > 100 | > 100 |  |  |  |  |  |
| N#CC1CCN2N=C(c3ccccc3)SC12c1ccccc1 (stereo not given) | > 100 | > 100 |  | > 100 | > 100 | > 100 | > 100 | > 100 | > 100 | 29.5 |  |  |  |  |  |
| Cc1ccc(CS(=O)(=O)C/N=c2\sc3ccccc3nc2/C=C(\O)c2ccc(Cl)cc2)cc1 | > 10 | > 10 |  | > 10 | > 10 | > 10 |  | > 10 | > 10 | > 10 |  |  |  |  |  |
| CC(C)C(=O)/C=C/c1ccc(Cl)cc1 | 23.1 |  | 51.7 | 33 |  | 52.3 | 35.5 | 27.8 | 16.3 | 36.4 |  |  |  |  |  |
| COC(=O)N/N=C/c1oc(-c2ccccc2)c(-c2ccccc2)c1[N+](=O)[O-] | > 100 |  |  | > 100 |  | > 100 | > 100 | > 100 | > 100 | > 100 |  |  |  |  |  |
| COc1ccc(N[C@H](CS(=O)c2ccc(C)cc2)C(F)(F)C(F)(F)F)cc1 (stereo not given in full) | > 100 | > 100 | > 100 | > 100 |  | > 100 | 32.4 | > 100 | > 100 | > 100 |  |  |  |  |  |
| COC(=O)C(Cc1ccccc1I)C1=CCC2(CC1)OCCO2 (stereo not given) | > 100 |  | 81 | 50.4 | > 100 | > 100 | 42.5 | > 100 | > 100 | 59.3 |  |  |  |  |  |
| O=C(OCC12CC3CC(CC(C3)C1)C2)c1ccc(NCc2cc(O)ccc2O)cc1 | 2.35 | 1.25 |  | 5.77 | 11.6 | 6.28 | 3.03 | 17.7 | > 25.7 | 3.93 |  |  |  |  |  |
| CSc1ccc2c(cc1=O)C(NC(=O)c1ccc(OC(C)=O)cc1)CCc1cc(O)c(O)c(O)c1-2 (stereo not given) | > 100 |  | > 100 | 30.7 |  | 22 |  | 35.3 | 29.5 | 36.3 |  |  |  |  |  |
| CC(/C=C/c1ccc([N+](=O)[O-])o1)=N/N1CC(CN2CCOCC2)OC1=O (stereo not given) | > 100 | 24.2 | 47.3 | 40.3 | > 100 | 29.7 |  | > 100 | 77.3 | 52.3 |  |  |  |  |  |
| COC(=O)C1C2C=CC(C2)N1S(=O)(=O)c1ccccc1 (stereo not given) | > 100 |  |  | > 100 | > 100 | > 100 | > 100 | > 100 | > 100 | > 100 |  |  |  |  |  |
| OCC1OC(n2nc(-c3ccccc3)nc2-c2cnccn2)C(O)C1O (stereo not given) | > 100 | > 100 | > 100 | > 100 | > 100 | > 100 |  | > 100 | > 100 | > 100 |  |  |  |  |  |
| C#CCOC(=O)C(N)CSSCC(N)C(=O)O (stereo not given) | > 100 | > 100 | > 100 | > 100 | > 100 | > 100 | > 100 |  | > 100 | > 100 |  |  |  |  |  |
| O=C(Nc1ccc(Cl)cc1)/C(Cc1cccc[n+]1[O-])=N\Nc1ccc([N+](=O)[O-])cc1[N+](=O)[O-] | > 100 |  | > 100 | > 100 |  | > 100 | > 100 | > 100 | > 100 | > 100 |  |  |  |  |  |
| CC[C@@H](C(=O)[C@@H](C)[C@@H](O)[C@H](C)CCc1ccc(C)c(O)c1C(=O)O)[C@H]1O[C@](CC)([C@H]2CC[C@](O)(CC)[C@H](C)O2)C[C@@H]1C | 13.5 |  | 6.29 | 13.8 |  | 19.2 |  | 6.91 | 15.6 | 4.04 |  |  |  |  |  |
| CCOC(=O)c1cc2c([nH]1)C(=O)CC1=C2CCN1Cc1ccccc1 | 31 | 38.3 | 28.6 |  | 28.8 | 26.8 | 30.5 | 34.2 | 23.3 | 28.4 |  |  |  |  |  |
| COc1cc2c3c(n(CCN(C)C)c(=O)c2cc1OC)-c1cc2c(cc1C3=O)OCO2 | > 100 | > 100 | 1.61 | > 100 | > 32.1 | > 100 | > 57.9 | > 41.7 | > 100 |  | > 47.7 | 0.294 | > 38.2 | 0.511 | 2.86 |
| CC(=O)OC1CC2(c3ccccc3)C(=O)c3ccccc3N2O1 (stereo not given) | > 100 |  | > 100 | > 100 |  | > 100 | > 100 | > 100 | > 100 | > 100 |  |  |  |  |  |
